ChEMBL document CHEMBL4190345, “Synthesis and biological evaluation of new substituted thioglycolurils, their analogues and derivatives” (Eur J Med Chem, 2017)

Experiments:
[1] = system: Rhizoctonia solani; assay: Fungicidal activity against Rhizoctonia solani grown under potato-saccharose agar assessed as inhibition of mycelial radial growth at 30 mg/l incubated for 72 hrs; format: functional; conditions: read-out: GI
[2] = system: RD; assay: Cytotoxicity in human RD cells assessed as inhibition of cell growth incubated for 72 hrs by MTT assay; format: functional, cell-based
[3] = system: Bipolaris sorokiniana; assay: Fungicidal activity against Bipolaris sorokiniana grown under potato-saccharose agar assessed as inhibition of mycelial radial growth at 30 mg/l incubated for 72 hrs; format: functional; conditions: read-out: GI
[4] = system: Fusarium oxysporum; assay: Fungicidal activity against Fusarium oxysporum grown under potato-saccharose agar assessed as inhibition of mycelial radial growth at 30 mg/l incubated for 72 hrs; format: functional; conditions: read-out: GI
[5] = system: A549; assay: Cytotoxicity in human A549 cells assessed as inhibition of cell growth incubated for 72 hrs by MTT assay; format: functional, cell-based; conditions: A549, 72 h
[6] = system: Fusarium verticillioides; assay: Fungicidal activity against Fusarium moniliforme grown under potato-saccharose agar assessed as inhibition of mycelial radial growth at 30 mg/l incubated for 72 hrs; format: functional; conditions: read-out: GI
[7] = system: Sclerotinia sclerotiorum; assay: Fungicidal activity against Sclerotinia sclerotiorum grown under potato-saccharose agar assessed as inhibition of mycelial radial growth at 30 mg/l incubated for 72 hrs; format: functional; conditions: read-out: GI
[8] = Cytotoxicity in human […] cells assessed as inhibition of cell growth incubated for 72 hrs by MTT assay; format: functional, cell-based
[9] = system: Venturia inaequalis; assay: Fungicidal activity against Venturia inaequalis grown under potato-saccharose agar assessed as inhibition of mycelial radial growth at 30 mg/l incubated for 72 hrs; format: functional; conditions: read-out: GI
[10] = system: MCF7; assay: Cytotoxicity in human MCF7 cells assessed as inhibition of cell growth incubated for 72 hrs by MTT assay; format: functional, cell-based; conditions: MCF7, 72 h
[11] = system: HEK293; assay: Cytotoxicity in human HEK293 cells assessed as inhibition of cell growth incubated for 72 hrs by MTT assay; format: cell-based
[12] = Homo sapiens, HEK293, 72 h, read-out: IC50

Structure (SMILES) | inhibition of growth at 30 µg/mL [1] [%] | IC50 [2] [µM] | inhibition of growth at 30 µg/mL [3] [%] | inhibition of growth at 30 µg/mL [4] [%] | IC50 [5] [µM] | inhibition of growth at 30 µg/mL [6] [%] | inhibition of growth at 30 µg/mL [7] [%] | IC50 [8] [µM] | inhibition of growth at 30 µg/mL [9] [%] | IC50 [10] [µM] | IC50 ([11]; hek293) | IC50 [11, 12] [µM]
CCN1C(=O)N(CC)C2C1NC(=S)N2/N=C/C=C/c1ccc(OC)cc1 (stereo not given) | 26 | 87 | 19 | 18 | 17.2 | 23 | 0 | 17.4 | 14 | 36.6 | – | –
CCN1C(=O)N(CC)C2C1NC(=O)N2/N=C/C=C/c1ccccc1 (stereo not given) | – | 2.02 | – | – | 44.3 | – | – | 18.3 | – | 83.2 | Not Active | –
CCN1C(=O)N(CC)C2C1N=C(SC)N2/N=C/C=C/c1ccccc1[N+](=O)[O-] (stereo not given) | – | 41.9 | – | – | > 100 | – | – | 65.6 | – | 66.7 | – | –
COc1ccc(/C=C/C=N/N2C(=S)NC3C2N(C)C(=O)N3C)cc1 (stereo not given) | – | > 100 | – | – | > 100 | – | – | 99.1 | – | > 100 | – | –
CN1C(=O)N(C)C2C1N=C(SCc1ccc(Cl)cc1)N2/N=C/C=C/c1ccccc1 (stereo not given) | 28 | – | 49 | 46 | – | 57 | 17 | – | 18 | – | – | –
CCN1C(=O)N(CC)C2C1N=C(SC)N2/N=C/C=C/c1ccc(OC)cc1 (stereo not given) | 76 | – | 64 | 32 | – | 32 | 12 | – | 13 | – | – | –
CCN1C(=O)N(CC)C2C1NC(=S)N2/N=C/C=C/c1ccccc1 (stereo not given) | 42 | 2.25 | 19 | 36 | 6.53 | 41 | 3 | 4.38 | 12 | 36.1 | – | 42.1
CCSC1=NC2C(N(CC)C(=O)N2CC)N1/N=C/C=C/c1ccccc1[N+](=O)[O-] (stereo not given) | 44 | 2.45 | 39 | 12 | > 100 | 22 | 12 | 5.07 | 10 | 30.7 | – | 221
CCN1C(=O)N(CC)C2C1NC(=O)N2/N=C/C=C/c1ccccc1[N+](=O)[O-] (stereo not given) | – | 1.93 | – | – | > 100 | – | – | 9.63 | – | 88 | – | 42.9
CN1C(=O)N(C)C2C1NC(=S)N2/N=C/C=C/c1ccccc1 (stereo not given) | – | 46 | – | – | 45.6 | – | – | 43 | – | > 100 | – | –
COc1ccccc1/C=C/C=N/N1C(SC)=NC2C1N(C)C(=O)N2C (stereo not given) | 56 | – | 33 | 20 | – | 14 | 13 | – | 13 | – | – | –
COc1cccc2c1C(=O)c1c(O)c3c(c(O)c1C2=O)C[C@@](O)(C(C)=O)C[C@@H]3O[C@H]1C[C@H](N)[C@H](O)[C@H](C)O1 [DAUNORUBICIN] | – | 2.45 | – | – | 0.51 | – | – | 0.21 | – | 1.44 | – | 11.2
CC(C)(C)C(=O)C(Oc1ccc(Cl)cc1)n1cncn1 (stereo not given) [TRIADIMEFON] | 52 | – | 76 | 64 | – | 61 | 61 | – | 60 | – | – | –
CCN1C(=O)N(CC)C2C1N=C(SC)N2/N=C/C=C/c1ccccc1OC (stereo not given) | 65 | 7.97 | 47 | 51 | 4.79 | 42 | 23 | 1.09 | 20 | 34.6 | – | 145
CCSC1=NC2C(N(CC)C(=O)N2CC)N1/N=C/C=C/c1ccccc1 (stereo not given) | 67 | – | 77 | 61 | – | 63 | 29 | – | 30 | – | – | –
CCSC1=NC2C(N(C)C(=O)N2C)N1/N=C/C=C/c1ccccc1 (stereo not given) | 80 | – | 48 | 70 | – | 71 | 32 | – | 28 | – | – | –

Structure (SMILES) | inhibition of growth at 30 µg/mL [1] [%] | IC50 [2] [µM] | inhibition of growth at 30 µg/mL [3] [%] | inhibition of growth at 30 µg/mL [4] [%] | IC50 [5] [µM] | inhibition of growth at 30 µg/mL [6] [%] | inhibition of growth at 30 µg/mL [7] [%] | IC50 [8] [µM] | inhibition of growth at 30 µg/mL [9] [%] | IC50 [10] [µM] | IC50 ([11]; hek293) | IC50 [11, 12] [µM]
CCN1C(=O)N(CC)C2C1N=C(SC)N2/N=C/C=C/c1ccccc1 (stereo not given) | 60 | 24 | 49 | 38 | 21.4 | 37 | 11 | 5.47 | 13 | 46.6 | – | 151
CCN1C(=O)N(CC)C2C1NC(=S)N2/N=C/C(C)=C/c1ccccc1 (stereo not given) | 34 | 20 | 7 | 23 | > 100 | 41 | 5 | 26.6 | 25 | 35.1 | – | –
CSC1=NC2C(N(C)C(=O)N2C)N1/N=C/C=C/c1ccco1 (stereo not given) | 27 | – | 34 | 34 | – | 51 | 11 | – | 19 | – | – | –
CCN1C(=O)N(CC)C2C1NC(=S)N2/N=C/C=C/c1ccccc1[N+](=O)[O-] (stereo not given) | – | 15.2 | – | – | > 100 | – | – | 7.71 | – | 43.9 | – | 19.3
CSC1=NC2C(N(C)C(=O)N2c2ccccc2)N1/N=C/C=C/c1ccccc1 (stereo not given) | 32 | – | 56 | 25 | – | 16 | 0 | – | 24 | – | – | –
COc1cccc2c1C(=O)c1c(O)c3c(c(O)c1C2=O)C[C@@](O)(C(=O)CO)C[C@@H]3O[C@H]1C[C@H](N)[C@H](O)[C@H](C)O1 [DOXORUBICIN] | – | 0.53 | – | – | 0.53 | – | – | 0.19 | – | 0.56 | – | 2.1
CC(/C=N/N1C(=S)NC2C1N(C)C(=O)N2C)=C\c1ccccc1 (stereo not given) | 82 | 84 | 9 | 29 | 49.4 | 20 | 11 | 75.9 | 28 | > 100 | – | –
CN1C(=O)N(c2ccccc2)C2NC(=S)N(/N=C/C=C/c3ccccc3)C21 (stereo not given) | – | 1.69 | – | – | > 100 | – | – | 12.1 | – | > 100 | – | 167
CCN1C(=O)N(CC)C2C1N=C(SCc1ccc(Cl)cc1)N2/N=C/C=C/c1ccccc1OC (stereo not given) | 19 | – | 36 | 8 | – | 13 | 14 | – | 21 | – | – | –
CSC1=NC2C(N(C)C(=O)N2c2ccccc2)N1/N=C/C=C/c1ccccc1[N+](=O)[O-] (stereo not given) | 12 | – | 37 | 10 | – | 9 | 17 | – | 16 | – | – | –
CCN1C(=O)N(c2ccccc2)C2NC(=S)N(/N=C/C=C/c3ccccc3)C21 (stereo not given) | – | 0.47 | – | – | > 100 | – | – | 1.46 | – | 2.25 | – | 2.17
CN1C(=O)N(C)C2C1N=C(SCc1ccc(Cl)cc1)N2/N=C/C=C/c1ccco1 (stereo not given) | 42 | – | 40 | 33 | – | 42 | 19 | – | 10 | – | – | –
CSC1=NC2C(N(C)C(=O)N2C)N1/N=C/C=C/c1ccccc1[N+](=O)[O-] (stereo not given) | 49 | > 100 | 36 | 20 | > 100 | 19 | 13 | > 100 | 10 | > 100 | – | –
CSC1=NC2C(N(C)C(=O)N2C)N1/N=C/C=C/c1ccccc1 (stereo not given) | 45 | – | 50 | 71 | – | 73 | 17 | – | 9 | – | – | –
COc1ccc(/C=C/C=N/N2C(SC)=NC3C2N(C)C(=O)N3C)cc1 (stereo not given) | 74 | – | 50 | 24 | – | 36 | 19 | – | 13 | – | – | –
CN1C(=O)N(C)C2C1NC(=O)N2/N=C/C=C/c1ccccc1 (stereo not given) | 92 | – | 5 | 6 | – | 9 | 12 | – | 18 | – | – | –
